Measurements published in BigSolDB 2.1.

C[C@]12CC[C@@H]3c4ccc(O)cc4CC[C@H]3[C@@H]1C[C@@H](O)[C@@H]2O
solubility (mole fraction)
Conditions	293.2 K	298.2 K	303.2 K	308.2 K	313.2 K	318.2 K	323.2 K	328.2 K
in 2-aminoethanol	0.0111	0.0127	0.0148	0.018	0.0214	0.0254	0.0314	0.0363
in DMF	0.00112	0.00158	0.00258	0.00426	0.00581	0.00958	0.013	0.018
in NMP	0.000415	0.000677	0.00105	0.00174	0.00275	0.00364	0.00491	0.00718
in morpholine-4-carbaldehyde	6.2e-05	0.00023	0.000652	0.00147	0.00343	0.00495	0.00726	0.0107
in n-dodecane	0.00072	0.000779	0.00092	0.000956	0.00128	0.00179	0.00243	0.00285
in n-hexadecane	0.00114	0.00147	0.00175	0.00219	0.00251	0.00299	0.00335	0.00382
in n-nonanol	0.0074	0.00863	0.0104	0.0116	0.0131	0.0147	0.0168	0.0199
in n-octane	0.000621	0.000735	0.000873	0.00103	0.00123	0.00138	0.00152	0.00186
in n-octanol	0.00593	0.00678	0.00747	0.00868	0.0104	0.0121	0.0147	0.0171
in n-pentanol	0.00243	0.00285	0.00367	0.00468	0.00594	0.00809	0.00967	0.0121
in sec-butanol	0.00189	0.0025	0.0032	0.00403	0.00453	0.00533	0.00668	0.00812
in water	0.000115	0.000135	0.000168	0.000191	0.000306	0.000422	0.000577	0.000803

C[C@@H]1CC[C@@]2(OC1)O[C@H]1C[C@H]3[C@@H]4CC=C5C[C@@H](O)CC[C@]5(C)[C@H]4CC[C@]3(C)[C@H]1[C@@H]2C
solubility (mole fraction)
Conditions	293.2 K	298.2 K	303.2 K	308.2 K	313.2 K	318.2 K	323.2 K	328.2 K
in 2-aminoethanol	0.00142	0.00218	0.0042	0.00625	0.00807	0.00914	0.011	0.0132
in DMF	0.00113	0.00159	0.00232	0.00369	0.00461	0.00587	0.00794	0.0116
in NMP	0.0118	0.0128	0.0138	0.0148	0.0163	0.0178	0.0196	0.0219
in acetonitrile	0.00359	0.00529	0.00675	0.00894	0.0125	0.0151	0.0188	0.0221
in morpholine-4-carbaldehyde	0.00663	0.00809	0.00976	0.012	0.0147	0.0162	0.0181	0.0198
in n-dodecane	0.000266	0.000351	0.000439	0.000542	0.000631	0.000743	0.000898	0.00105
in n-hexadecane	0.000256	0.000373	0.000465	0.000626	0.000949	0.00131	0.00171	0.00244
in n-nonanol	0.0067	0.00825	0.00965	0.011	0.0123	0.0132	0.0145	0.0155
in n-octane	8.1e-05	0.00013	0.00016	0.00021	0.000302	0.000466	0.00068	0.000915
in n-octanol	0.00348	0.00423	0.00516	0.0066	0.00842	0.00947	0.0104	0.0116
in sec-butanol	0.000128	0.000229	0.000436	0.000784	0.00119	0.0017	0.00253	0.00366
